Measurements taken from patent EP0256125A1, “MEANS FOR PREVENTING MICROBIOLOGICAL OVERGROWING OF HARD SURFACE” (priority 1985, dated 1987).

What was measured:
[1] = tested on: Schimmelpilzen, die die Bewachsung von Oberflächen hervorrufen; test: Fungicidal activity, summary over all tested fungi; type: cell-based; details: day 5
Source text: (§1) Man prüfte die funguzide Aktivität von Zink-bis-(N-vi- nyloxyethyl)dithiocarbamat gegenüber den reinen Pilzkulturen: Gladosporium resinae, Cladosporium cladosporioides, Acremonium corvum, Acremonium charticola, Penicillium charlesii Smith, Walrotiela subiculesa, Geotrichum candidum Link, Oidium, Penicillium crysogenum. Die genannten Pilze wurden von den Oberflächen der Wände und Decken von Bierbrauereien und Werken für die Herstellung von alkoholfreien Getränken ausgeschieden.
Es wurden Lösungen des Zink-bis-(N-vinyloxyethyl)di- thiocarbamats im Azeton verschiedener Konzentration hergestellt, die so berechnet wurde, daß bei der Einführung vor 1 ml Lösung in 10 ml des geschmolzenen Würzeagars (45-50°C) die Konzentration des genannten Stoffes im Medium von 0,0015 bis 0,012% betrug. In eine der Petri-Schalen wurde Nährboden mit 1 ml Azeton (Kontrolle) gegossen.
(§2) In 18 bis 20 Stunden nach dem Vergießen des Nährbodens in die Petri-Schalen führte man die Inokulation der reinen Pilzkultur durch, die vorher an einem Schräg-Würzeagar während 15 Tage gezüchtet wurden. Die Inkubation führte man bei einer Temperatur von 25 bis 27°C während 5 Tage durch. Danach wurde der Durchmesser der Pilzkolonien gemessen und der Prozentsatz der Hemmung des Wachstums des Myzeliums (S) nach der Abbott -Formel gezählt: [formula] worin dc Durchmesser der Pilzkolonien in Kontrolle ist, de =Durchmesser der Pilzkolonien in einer Schale mit dem Nährboden ist, der Zink-bis-(N-vinyloxyethyl)dithiocarbamat enthält.

[2] = Storage stability (qualitative); type: physicochemical; details: result in words
p. Escherichiae = test: Bactericidal activity, growth on agar medium; type: cell-based; details: 37°C, 5 Tage
Method: (§3) Die bakterizide Aktivität des Kalium N-(vinyloxyethyl)-dithiocarbamats gegenüber den Bakterien, die von der Oberfläche von Wänden und Decken der Produktionsräume von Brauereien und Fabriken zur Herstellunq von alkoholfreien Getränken ausgeschieden wurden und die zu p.p.Bacillus, Micrococcus, Pseudomonas, Escherichiae gehören, wurde geprüft.
(§4) Es wurden wäßrige Lösungen des genannten Stoffes verschiedener Konzentration hergestellt, die so berechnet wurde, daß bei Einführung von 1 ml der Lösung in 25 ml geschmolzenen agarisierten Nährboden (45-50°C) die Konzentration des Stoffes im Nährboden von 0,003 bis 0,5% betrug. In 18 bis 24 Stunden wurde auf die Oberfläche des Nährbodens 0,1 ml der wäßrigen Suspension der eintägigen reinen Bakterienkulturen aufgetragen, die am Fleisch-Pepton-Agar gezüchtet wurden. Die Suspension wurde gleichmäßig verteilt. In Kontrollschalen wurden 0,1 ml Wasser auf der Oberfläche des Närhbodens verteilt.
(§5) Die Inkubation führte man bei einer Temperatur von 37°C während 5 Tage durch.
(§6) Die effektive Wirkung des Stoffes wurde nach dem Auftreten des Bakterienwachstums an der Oberfläche des Nährbodens bewertet.

p.Micrococcus = test: Bactericidal activity, growth on agar medium; type: cell-based; details: 37°C, 5 Tage
Method: as §3, §4, §5, §6

p.Bacillus = test: Bactericidal activity, growth on agar medium; type: cell-based; details: 37°C, 5 Tage
Method: as §3, §4, §5, §6

p.Pseudomonas = test: Bactericidal activity, growth on agar medium; type: cell-based; details: 37°C, 5 Tage
Method: as §3, §4, §5, §6

[3] = Solubility in solvents (qualitative); details: for Löslichkeit im Alkohol: Alkohol (Ethylalkohol)
[4] = tested on: Cladosporium cladosporioides; test: Fungicidal activity, inhibition of mycelium growth on wort agar; type: cell-based
Source text: as §1
(§7) […] In eine der Petri-Schalen wurde Nährboden mit 1 ml Azeton (Kontrolle) gegossen.
as §2

Cladosporium resinae = test: as above; type: cell-based
Source text: as §1, §7, §2

Acremonium charticola = test: as above; type: cell-based
Source text: as §1, §7, §2

Acremonium corvum = test: as above; type: cell-based
Source text: as §1, §7, §2

Walrotiela subiculesa = test: as above; type: cell-based
Source text: as §1, §7, §2

[5] = tested on: Penicillium charlesii Smith; test: as above; type: cell-based
Source text: as §1, §7, §2

Penicillium chrysogenum = test: as above; type: cell-based
Source text: as §1, §7, §2

Geotrichum candidum Link = test: as above; type: cell-based
Source text: as §1, §7, §2

weißen Mäusen = test: Acute toxicity in white mice; details: perorale Einführung bei weißen Mäusen
Oidium = test: Fungicidal activity, inhibition of mycelium growth on wort agar; type: cell-based
Source text: as §1, §7, §2

[6] = Konzentration des Stoffes 0,01 %
[7] = Konzentration des Stoffes 0,1 % (0,10)
[8] = Konzentration des Stoffes 0,02 %
[9] = Konzentration des Stoffes 0,05 %
[10] = Konzentration des Stoffes 0,005 %
[11] = Konzentration des Stoffes 0,0015 %
[12] = Konzentration des Stoffes 0,003 %
[13] = Konzentration des Stoffes 0,006 %
[14] = Konzentration des Stoffes 0,012 %

Kupfer bis-(N-vinyloxyethyl) dithiocarbamat
Konzentration, bei der die Entwicklung aller untersuchten Pilze vollständig gehemmt wurde [1]: 0,1% | Lagerbeständigkeit [2]: lagerbeständig | Konzentration der Salze der N-(vinyloxyethyl)dithiocarbaminsäure (100%), die das Wachstum der Bakterien am 5. Tag des Wachstums hemmen, p. Escherichiae (p. Escherichiae): 0,15% | Konzentration der Salze der N-(vinyloxyethyl)dithiocarbaminsäure (100%), die das Wachstum der Bakterien am 5. Tag des Wachstums hemmen, p.Micrococcus (p.Micrococcus): 0,15% | Konzentration der Salze der N-(vinyloxyethyl)dithiocarbaminsäure (100%), die das Wachstum der Bakterien am 5. Tag des Wachstums hemmen, p.Bacillus (p.Bacillus): 0,15% | Konzentration der Salze der N-(vinyloxyethyl)dithiocarbaminsäure (100%), die das Wachstum der Bakterien am 5. Tag des Wachstums hemmen, p.Pseudomonas (p.Pseudomonas): 0,15% | Löslichkeit im Alkohol [3]: bearenzt löslich | Löslichkeit im Azeton [3]: bearenzt löslich | Löslichkeit im Diethylether ([3]; Diethylether): nicht löslich | Löslichkeit im Dimethylsulfoxid [3]: gut löslich | Löslichkeit in Wasser [3]: bearenzt löslich | Hemmung des Myzeliums am 5. Tag des Wachstums, Cladosporium cladosporioides [4, 6]: 36% | Hemmung des Myzeliums am 5. Tag des Wachstums, Cladosporium cladosporioides [4, 7]: 100% | Hemmung des Myzeliums am 5. Tag des Wachstums, Cladosporium cladosporioides [4, 8]: 65% | Hemmung des Myzeliums am 5. Tag des Wachstums, Cladosporium cladosporioides [4, 9]: 80% | Hemmung des Myzeliums am 5. Tag des Wachstums, Cladosporium cladosporioides [4, 10]: 15% | Hemmung des Myzeliums am 5. Tag des Wachstums, Cladosporium resinae (Cladosporium resinae; [6]): 34% | Hemmung des Myzeliums am 5. Tag des Wachstums, Cladosporium resinae (Cladosporium resinae; [7]): 100% | Hemmung des Myzeliums am 5. Tag des Wachstums, Cladosporium resinae (Cladosporium resinae; [8]): 80% | Hemmung des Myzeliums am 5. Tag des Wachstums, Cladosporium resinae (Cladosporium resinae; [9]): 90% | Hemmung des Myzeliums am 5. Tag des Wachstums, Acremonium charticola (Acremonium charticola; [6]): 96% | Hemmung des Myzeliums am 5. Tag des Wachstums, Acremonium charticola (Acremonium charticola; [7]): 100% | Hemmung des Myzeliums am 5. Tag des Wachstums, Acremonium charticola (Acremonium charticola; [8]): 100% | Hemmung des Myzeliums am 5. Tag des Wachstums, Acremonium charticola (Acremonium charticola; [9]): 100% | Hemmung des Myzeliums am 5. Tag des Wachstums, Acremonium charticola (Acremonium charticola; [10]): 70% | Hemmung des Myzeliums am 5. Tag des Wachstums, Acremonium corvum (Acremonium corvum; [6]): 100% | Hemmung des Myzeliums am 5. Tag des Wachstums, Acremonium corvum (Acremonium corvum; [7]): 100% | Hemmung des Myzeliums am 5. Tag des Wachstums, Acremonium corvum (Acremonium corvum; [8]): 100% | Hemmung des Myzeliums am 5. Tag des Wachstums, Acremonium corvum (Acremonium corvum; [9]): 100% | Hemmung des Myzeliums am 5. Tag des Wachstums, Acremonium corvum (Acremonium corvum; [10]): 100% | Hemmung des Myzeliums am 5. Tag des Wachstums, Walrotiela subiculesa (Walrotiela subiculesa; [6]): 0% | Hemmung des Myzeliums am 5. Tag des Wachstums, Walrotiela subiculesa (Walrotiela subiculesa; [7]): 100% | Hemmung des Myzeliums am 5. Tag des Wachstums, Walrotiela subiculesa (Walrotiela subiculesa; [8]): 10% | Hemmung des Myzeliums am 5. Tag des Wachstums, Walrotiela subiculesa (Walrotiela subiculesa; [9]): 37% | Hemmung des Myzeliums am 5. Tag des Wachstums, Walrotiela subiculesa (Walrotiela subiculesa; [10]): 0% | Hemmung des Myzeliums am 5. Tag des Wachstums, Penicillium charlesii Smith [5, 6]: 30% | Hemmung des Myzeliums am 5. Tag des Wachstums, Penicillium charlesii Smith [5, 7]: 100% | Hemmung des Myzeliums am 5. Tag des Wachstums, Penicillium charlesii Smith [5, 8]: 80% | Hemmung des Myzeliums am 5. Tag des Wachstums, Penicillium charlesii Smith [5, 9]: 100% | Hemmung des Myzeliums am 5. Tag des Wachstums, Penicillium charlesii Smith [5, 10]: 15% | Hemmung des Myzeliums am 5. Tag des Wachstums, Penicillium chrysogenum (Penicillium chrysogenum; [6]): 25% | Hemmung des Myzeliums am 5. Tag des Wachstums, Penicillium chrysogenum (Penicillium chrysogenum; [7]): 100% | Hemmung des Myzeliums am 5. Tag des Wachstums, Penicillium chrysogenum (Penicillium chrysogenum; [8]): 36% | Hemmung des Myzeliums am 5. Tag des Wachstums, Penicillium chrysogenum (Penicillium chrysogenum; [9]): 70% | Hemmung des Myzeliums am 5. Tag des Wachstums, Penicillium chrysogenum (Penicillium chrysogenum; [10]): 10% | Hemmung des Myzeliums am 5. Tag des Wachstums, Geotrichum candidum Link (Geotrichum candidum Link; [6]): 100% | Hemmung des Myzeliums am 5. Tag des Wachstums, Geotrichum candidum Link (Geotrichum candidum Link; [7]): 100% | Hemmung des Myzeliums am 5. Tag des Wachstums, Geotrichum candidum Link (Geotrichum candidum Link; [8]): 100% | Hemmung des Myzeliums am 5. Tag des Wachstums, Geotrichum candidum Link (Geotrichum candidum Link; [9]): 100% | Hemmung des Myzeliums am 5. Tag des Wachstums, Geotrichum candidum Link (Geotrichum candidum Link; [10]): 100%

Zink-bis-(N-vinyloxyethyl)dithiocarbamat
Konzentration, bei der die Entwicklung aller untersuchten Pilze vollständig gehemmt wurde [1]: 0,012% | Konzentration der Salze der N-(vinyloxyethyl)dithiocarbaminsäure (100%), die das Wachstum der Bakterien am 5. Tag des Wachstums hemmen, p. Escherichiae (p. Escherichiae): 0,05% | Konzentration der Salze der N-(vinyloxyethyl)dithiocarbaminsäure (100%), die das Wachstum der Bakterien am 5. Tag des Wachstums hemmen, p.Micrococcus (p.Micrococcus): 0,05% | Konzentration der Salze der N-(vinyloxyethyl)dithiocarbaminsäure (100%), die das Wachstum der Bakterien am 5. Tag des Wachstums hemmen, p.Bacillus (p.Bacillus): 0,05% | Konzentration der Salze der N-(vinyloxyethyl)dithiocarbaminsäure (100%), die das Wachstum der Bakterien am 5. Tag des Wachstums hemmen, p.Pseudomonas (p.Pseudomonas): 0,05% | LD50 (weißen Mäusen): 1120 + 260 mg/kg | Löslichkeit im Alkohol [3]: begrenzt | Löslichkeit im Azeton [3]: begrenzt | Löslichkeit im Dimethylsulfoxid [3]: gut | Löslichkeit in Wasser [3]: unlöslich | Hemmung des Myzeliums am 5. Tag des Wachstums, Cladosporium cladosporioides [4, 11]: 100% | Hemmung des Myzeliums am 5. Tag des Wachstums, Cladosporium cladosporioides [4, 12]: 100% | Hemmung des Myzeliums am 5. Tag des Wachstums, Cladosporium cladosporioides [4, 13]: 100% | Hemmung des Myzeliums am 5. Tag des Wachstums, Cladosporium cladosporioides [4, 14]: 100% | Hemmung des Myzeliums am 5. Tag des Wachstums, Cladosporium resinae (Cladosporium resinae; [11]): 37,5% | Hemmung des Myzeliums am 5. Tag des Wachstums, Cladosporium resinae (Cladosporium resinae; [12]): 100% | Hemmung des Myzeliums am 5. Tag des Wachstums, Cladosporium resinae (Cladosporium resinae; [13]): 100% | Hemmung des Myzeliums am 5. Tag des Wachstums, Cladosporium resinae (Cladosporium resinae; [14]): 100% | Hemmung des Myzeliums am 5. Tag des Wachstums, Acremonium charticola (Acremonium charticola; [11]): 50% | Hemmung des Myzeliums am 5. Tag des Wachstums, Acremonium charticola (Acremonium charticola; [12]): 100% | Hemmung des Myzeliums am 5. Tag des Wachstums, Acremonium charticola (Acremonium charticola; [13]): 100% | Hemmung des Myzeliums am 5. Tag des Wachstums, Acremonium charticola (Acremonium charticola; [14]): 100% | Hemmung des Myzeliums am 5. Tag des Wachstums, Acremonium corvum (Acremonium corvum; [11]): 40% | Hemmung des Myzeliums am 5. Tag des Wachstums, Acremonium corvum (Acremonium corvum; [12]): 100% | Hemmung des Myzeliums am 5. Tag des Wachstums, Acremonium corvum (Acremonium corvum; [13]): 100% | Hemmung des Myzeliums am 5. Tag des Wachstums, Acremonium corvum (Acremonium corvum; [14]): 100% | Hemmung des Myzeliums am 5. Tag des Wachstums, Walrotiela subiculesa (Walrotiela subiculesa; [11]): 52% | Hemmung des Myzeliums am 5. Tag des Wachstums, Walrotiela subiculesa (Walrotiela subiculesa; [12]): 100% | Hemmung des Myzeliums am 5. Tag des Wachstums, Walrotiela subiculesa (Walrotiela subiculesa; [13]): 100% | Hemmung des Myzeliums am 5. Tag des Wachstums, Walrotiela subiculesa (Walrotiela subiculesa; [14]): 100% | Hemmung des Myzeliums am 5. Tag des Wachstums, Penicillium charlesii Smith [5, 11]: 90% | Hemmung des Myzeliums am 5. Tag des Wachstums, Penicillium charlesii Smith [5, 12]: 100% | Hemmung des Myzeliums am 5. Tag des Wachstums, Penicillium charlesii Smith [5, 13]: 100% | Hemmung des Myzeliums am 5. Tag des Wachstums, Penicillium charlesii Smith [5, 14]: 100% | Hemmung des Myzeliums am 5. Tag des Wachstums, Penicillium chrysogenum (Penicillium chrysogenum; [11]): 10% | Hemmung des Myzeliums am 5. Tag des Wachstums, Penicillium chrysogenum (Penicillium chrysogenum; [12]): 40% | Hemmung des Myzeliums am 5. Tag des Wachstums, Penicillium chrysogenum (Penicillium chrysogenum; [13]): 80% | Hemmung des Myzeliums am 5. Tag des Wachstums, Penicillium chrysogenum (Penicillium chrysogenum; [14]): 100% | Hemmung des Myzeliums am 5. Tag des Wachstums, Oidium (Oidium; [11]): 80% | Hemmung des Myzeliums am 5. Tag des Wachstums, Oidium (Oidium; [12]): 100% | Hemmung des Myzeliums am 5. Tag des Wachstums, Oidium (Oidium; [13]): 100% | Hemmung des Myzeliums am 5. Tag des Wachstums, Oidium (Oidium; [14]): 100% | Hemmung des Myzeliums am 5. Tag des Wachstums, Geotrichum candidum Link (Geotrichum candidum Link; [11]): 29% | Hemmung des Myzeliums am 5. Tag des Wachstums, Geotrichum candidum Link (Geotrichum candidum Link; [12]): 100% | Hemmung des Myzeliums am 5. Tag des Wachstums, Geotrichum candidum Link (Geotrichum candidum Link; [13]): 100% | Hemmung des Myzeliums am 5. Tag des Wachstums, Geotrichum candidum Link (Geotrichum candidum Link; [14]): 100%
